Legend:
Settings in all cases: Homo sapiens
[1] = system: MT4; experiment: Concentration required to show cytotoxicity for MT-4 cells infected with HIV-1 IIIb strain; format: functional
[2] = system: MT4; experiment: Tested for cytopathic effect of compound for MT-4 cells infected with HIV-1 IIIb strain relative to R-95288 (1); format: functional, cell-based
[3] = system: MT4; experiment: Tested for cytopathic effect of compound for MT-4 cells infected with HIV-1 IIIb strain; format: functional, cell-based

## Cc1cn([C@H]2C[C@H](OP(=O)(O)O[C@H]3O[C@@H](n4cnc5c(O)nc(N)nc54)C[C@@H]3OP(=O)(O)OC[C@H]3O[C@@H](n4cnc5c(O)nc(N)nc54)C[C@@H]3OP(=O)(O)OC[C@H]3O[C@@H](n4cnc5c(O)nc(N)nc54)C[C@@H]3OP(=O)(O)O)[C@@H](COCc3ccc(OCc4ccccc4)c(OCc4ccccc4)c3)O2)c(=O)[nH]c1=O
[1]
  CC50: > 40 µM
[2]
  IC50: 43 µM

## Cc1cn([C@H]2C[C@H](OP(=O)(O)O[C@H]3O[C@@H](n4cnc5c(=O)[nH]c(N)nc54)C[C@@H]3OP(=O)(O)OC[C@H]3O[C@@H](n4cnc5c(=O)[nH]c(N)nc54)C[C@@H]3OP(=O)(O)OC[C@H]3O[C@@H](n4cnc5c(=O)[nH]c(N)nc54)C[C@@H]3OP(=O)(O)OC[C@H]3O[C@@H](n4cnc5c4N=CNC5N)C[C@@H]3OP(=O)(O)OC[C@H]3O[C@@H](n4cnc5c(=O)[nH]c(N)nc54)C[C@@H]3OP(=O)(O)OCCO)[C@@H](COCc3ccc(OCc4ccccc4)c(OCc4ccccc4)c3)O2)c(=O)[nH]c1=O (some centres undefined)
[1]
  CC50: > 40 µM
[3]
  IC50: 1 µM

— ChEMBL document CHEMBL1132746, “Biologically active oligodeoxyribonucleotides. Part 12: N2-methylation of 2'-deoxyguanosines enhances stability of parallel G-quadruplex and anti-HIV-1 activity” (Bioorg Med Chem Lett, 2000)
